Values joined by “and” are separate entries in the source; they are usually repeats but may differ in a detail not shown here. Identical values can stand only once. “Also recorded” adds a separate entry of the source.
Assays:
[1] = target: T1, PTPβ (Protein Tyrosine Phosphatase Receptor beta) (Homo sapiens, UniProt P23467); assay: PhosphataseProfiler screen: PTPβ; type: biochemical; settings: replicates
T1 construct: purchased Eurofins Pharma Discovery Services UK
Experimental: (§1) Compound DJ001 was evaluated in a PhosphataseProfiler™ screen at 10 μM and 1 μM (2.7 μg/mL and 0.27 μg/mL) concentrations at Eurofins Pharma Discovery Services UK (Study number UK022-0004033) against a panel of 21 Phosphatases. In each experiment, the respective reference antagonist/agonist was tested directly with DJ001 and the data were compared with historical values determined at Eurofins. DJ001 compound inhibition was calculated as percentage inhibition of the enzymatic activity compared with control.

[2] = target: T2, PTP1B (Protein Tyrosine Phosphatase 1B) (Homo sapiens, UniProt P18031); assay: PhosphataseProfiler screen: PTP1B; type: biochemical; settings: replicates
T2 construct: purchased Eurofins Pharma Discovery Services UK
Experimental: as §1

[3] = tested on: BM KSL cells; assay: Gene expression of pro- and anti-apoptotic genes in irradiated BM KSL cells (qPCR); type: cell-based, mouse; design: key to Figure 3g: gene expression, Bax / Figure 3g: gene expression, Bcl-2 / Figure 3g: gene expression, Bcl-xL / Figure 3g: gene expression, Bim / Figure 3g: gene expression, Mcl1: fold change, 2^-ΔΔCt vs media-treated non-irradiated KSL, Gapdh-normalized
Excerpt: For all studies, RNA was isolated using the Qiagen RNeasy micro kit (Qiagen). RNA was reverse transcribed using the High-Capacity cDNA Reverse Transcription Kit (ThermoFisher Scientific) and was then used for quantitative PCR with SYBR Select Master Mix (Life Technologies). Values were normalized to housekeeping gene Gapdh/GAPDH and given as ΔΔCt values normalized to media-treated, non-irradiated BM KSL cells (2(−ΔΔC(T)) method)[67].

[4] = target: T3, Lambda PP (Lambda Protein Phosphatase) (Escherichia phage lambda, UniProt P03772); assay: PhosphataseProfiler screen: Lambda PP; type: biochemical; settings: replicates
T3 construct: purchased Eurofins Pharma Discovery Services UK
Experimental: as §1

[5] = tested on: progeny of irradiated human BM CD34+ cells in NSG mice; assay: Human BM transplantation assay in NSG mice; type: in vivo
Experimental: Human BM mononuclear cells were purchased from AllCells. Cryopreserved human BM cells were recovered in IMDM + 10% FBS + 1% penicillin–streptomycin and then positively selected for CD34^+ stem/progenitor cells by using CD34 MicroBead Kit (Miltenyi Biotec, #130-046-702, 1:5). CD34^+ cells were cultured in human TSF media (IMDM, 10%FBS, 1% pen-strep, 20 ng/mL recombinant human TPO, 125 ng/mL recombinant human SCF, 50 ng/mL recombinant human Flt3 ligand (R&D Systems). The progeny of 2 × 10^5 irradiated, human BM CD34^+ cultured for 36 h and treated with DJ001 at 5 μg/mL, were transplanted via tail vein injection into 10–12-week-old NSG mice preconditioned with 275 cGy TBI. Multilineage donor hematopoietic cell engraftment was monitored in the PB and BM by flow cytometry. The PB or BM cells were stained with BV605-conjugated anti-mouse CD45 (BioLegend, #103139, 1:100), AF647-conjugated anti-human CD34 (BioLegend, #343618, 1:100), FITC-conjugated anti-human CD33 (BD Biosciences, #555626, 1:100), V450-conjugated anti-human CD45 (BD Biosciences, #560368, 1:100), APC-conjugated anti-human CD3 (BD Biosciences, #555342, 1:100), and APC-Cy7-conjugated anti-human CD19 (BD Biosciences, #557791, 1:100) antibodies.

[6] = target: T4, TCPTP (T-Cell Protein-Tyrosine Phosphatase) (Homo sapiens, UniProt P17706); assay: PhosphataseProfiler screen: TCPTP; type: biochemical; settings: replicates
T4 construct: purchased Eurofins Pharma Discovery Services UK
Experimental: as §1

[7] = BM KSL cells, 12 h post 300 cGy
[8] = irradiated BM KSL cells, qPCR, replicates
[9] = progeny of irradiated human BM CD34+ cells, individual mice, in % (unit assumed)

T4 sequence (P17706 whole entry, species assumed): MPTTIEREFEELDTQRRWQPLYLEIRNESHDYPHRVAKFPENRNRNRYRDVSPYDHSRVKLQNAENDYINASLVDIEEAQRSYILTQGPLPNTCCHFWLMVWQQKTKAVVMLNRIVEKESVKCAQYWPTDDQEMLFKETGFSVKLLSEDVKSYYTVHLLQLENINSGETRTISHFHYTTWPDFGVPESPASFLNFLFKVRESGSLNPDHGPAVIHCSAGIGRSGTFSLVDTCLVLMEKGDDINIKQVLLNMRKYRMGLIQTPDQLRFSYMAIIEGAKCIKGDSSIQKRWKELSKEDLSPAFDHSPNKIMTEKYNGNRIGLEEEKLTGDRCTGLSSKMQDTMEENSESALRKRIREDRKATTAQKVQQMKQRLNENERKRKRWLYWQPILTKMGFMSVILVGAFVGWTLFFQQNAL
T3 sequence (P03772 whole entry): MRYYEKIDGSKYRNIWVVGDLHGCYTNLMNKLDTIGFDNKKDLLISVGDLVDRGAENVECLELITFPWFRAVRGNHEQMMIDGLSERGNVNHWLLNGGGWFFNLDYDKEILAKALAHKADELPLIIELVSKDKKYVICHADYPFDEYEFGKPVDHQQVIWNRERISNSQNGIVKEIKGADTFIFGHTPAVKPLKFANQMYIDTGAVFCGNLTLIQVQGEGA
T1 sequence (P23467 23-1997): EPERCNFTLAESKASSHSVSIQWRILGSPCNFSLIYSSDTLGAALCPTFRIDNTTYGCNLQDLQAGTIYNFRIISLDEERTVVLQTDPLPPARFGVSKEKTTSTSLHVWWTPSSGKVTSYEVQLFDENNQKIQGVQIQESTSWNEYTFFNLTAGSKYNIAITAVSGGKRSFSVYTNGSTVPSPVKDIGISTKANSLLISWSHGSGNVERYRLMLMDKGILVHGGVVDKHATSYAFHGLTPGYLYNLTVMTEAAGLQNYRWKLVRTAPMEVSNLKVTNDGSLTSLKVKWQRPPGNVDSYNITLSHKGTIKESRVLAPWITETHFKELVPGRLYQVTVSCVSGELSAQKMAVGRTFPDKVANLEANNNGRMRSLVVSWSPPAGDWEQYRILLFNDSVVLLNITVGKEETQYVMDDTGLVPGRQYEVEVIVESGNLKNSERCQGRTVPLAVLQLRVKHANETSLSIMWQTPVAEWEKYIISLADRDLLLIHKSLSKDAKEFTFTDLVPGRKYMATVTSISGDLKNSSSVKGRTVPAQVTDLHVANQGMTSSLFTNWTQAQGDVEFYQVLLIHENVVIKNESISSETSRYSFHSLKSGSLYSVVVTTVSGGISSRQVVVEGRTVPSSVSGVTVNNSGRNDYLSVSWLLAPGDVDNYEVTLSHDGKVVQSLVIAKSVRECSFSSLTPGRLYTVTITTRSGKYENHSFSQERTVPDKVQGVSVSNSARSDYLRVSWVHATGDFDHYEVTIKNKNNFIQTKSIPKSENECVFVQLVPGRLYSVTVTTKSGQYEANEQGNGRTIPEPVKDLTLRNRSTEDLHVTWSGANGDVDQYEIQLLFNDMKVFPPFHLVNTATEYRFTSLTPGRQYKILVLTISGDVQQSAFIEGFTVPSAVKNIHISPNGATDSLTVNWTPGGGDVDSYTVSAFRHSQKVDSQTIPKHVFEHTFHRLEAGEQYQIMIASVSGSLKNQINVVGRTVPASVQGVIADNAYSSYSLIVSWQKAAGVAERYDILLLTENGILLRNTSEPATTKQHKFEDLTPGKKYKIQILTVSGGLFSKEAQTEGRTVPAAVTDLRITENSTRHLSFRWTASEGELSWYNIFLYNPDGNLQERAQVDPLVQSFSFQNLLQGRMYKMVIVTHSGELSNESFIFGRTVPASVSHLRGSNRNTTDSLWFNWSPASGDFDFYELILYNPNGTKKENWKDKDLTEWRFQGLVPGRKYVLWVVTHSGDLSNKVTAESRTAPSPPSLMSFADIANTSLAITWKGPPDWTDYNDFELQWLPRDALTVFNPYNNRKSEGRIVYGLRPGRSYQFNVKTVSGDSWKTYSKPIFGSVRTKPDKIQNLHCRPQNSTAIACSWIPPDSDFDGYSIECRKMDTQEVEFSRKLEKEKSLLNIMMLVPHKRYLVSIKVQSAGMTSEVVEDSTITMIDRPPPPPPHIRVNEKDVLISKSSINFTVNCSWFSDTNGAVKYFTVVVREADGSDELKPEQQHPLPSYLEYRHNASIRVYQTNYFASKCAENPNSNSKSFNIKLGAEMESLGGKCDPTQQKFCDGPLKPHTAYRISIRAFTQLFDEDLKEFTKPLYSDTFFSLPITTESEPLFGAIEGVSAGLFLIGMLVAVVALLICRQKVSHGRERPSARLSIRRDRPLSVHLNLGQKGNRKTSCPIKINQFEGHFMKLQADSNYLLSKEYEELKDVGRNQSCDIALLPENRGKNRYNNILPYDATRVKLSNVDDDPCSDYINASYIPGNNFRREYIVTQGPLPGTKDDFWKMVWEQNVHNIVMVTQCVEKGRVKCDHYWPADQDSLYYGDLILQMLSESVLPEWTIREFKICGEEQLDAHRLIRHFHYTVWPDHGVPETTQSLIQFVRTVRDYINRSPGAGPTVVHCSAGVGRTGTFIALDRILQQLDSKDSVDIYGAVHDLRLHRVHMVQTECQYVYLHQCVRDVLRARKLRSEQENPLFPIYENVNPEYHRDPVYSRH
T2 sequence (P18031 whole entry, species assumed): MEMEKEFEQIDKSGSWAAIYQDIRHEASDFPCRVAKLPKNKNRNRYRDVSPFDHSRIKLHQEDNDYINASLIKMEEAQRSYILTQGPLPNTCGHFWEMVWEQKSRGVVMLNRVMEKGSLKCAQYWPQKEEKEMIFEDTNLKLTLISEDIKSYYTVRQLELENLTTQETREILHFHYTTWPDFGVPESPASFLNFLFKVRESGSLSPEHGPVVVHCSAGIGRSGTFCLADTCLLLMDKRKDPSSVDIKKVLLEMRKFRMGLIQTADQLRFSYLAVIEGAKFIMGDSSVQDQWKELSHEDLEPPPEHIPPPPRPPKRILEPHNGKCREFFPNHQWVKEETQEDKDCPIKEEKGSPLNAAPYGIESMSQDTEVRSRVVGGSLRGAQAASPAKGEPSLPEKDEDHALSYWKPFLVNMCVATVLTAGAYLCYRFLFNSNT

`O=C(/C=C\Nc1cccc([N+](=O)[O-])c1)c1ccccc1` [DJ001, (Z)-3-((3-nitrophenyl)amino)-1-phenylprop-2-en-1-one] was tested, and the “Supplementary Figure 1: PTP activity” value ([1]; 2.7 μg/mL DJ001) was 92 and 79 and 96, the “Supplementary Figure 1: PTP activity” value ([1]; 0.27 g/mL DJ001) was 98 and 91 and 84 and the “Supplementary Figure 1: PTP1B activity” value ([2]; 0.27 μg/mL DJ001) was 97 and 90 and 91. For the same molecule, the “Supplementary Figure 1: PTP1B activity” value ([2]; 2.7 μg/mL DJ001) was 96 and 86 and 90, the “expression of Bim, Bax, Puma, Bcl2” value [3, 7] was “no effect” and the “expression of Mcl-1 and Bcl2l1” value [3, 7] was “increased the expression”. The “Figure 3g: gene expression, Bax” value [3, 8] was 2.95 and 3.78 and 1.75, the “Figure 3g: gene expression, Bcl-2” value [3, 8] was 1.73 and 1.94 and 1.28 and 1.59 and 1.76 and 1.06 and the “Figure 3g: gene expression, Bcl-xL” value [3, 8] was 4.94 and 3.23 and 6.87 and 4.82 and 3.79 and 5.97. For the same molecule, the “Figure 3g: gene expression, Bim” value [3, 8] was 2.95 and 3.78 and 2.75, the “Figure 3g: gene expression, Mcl1” value [3, 8] was 1.95 and 1.78 and 2.55 and 0.81 and 1.62 and 1.96 and the “Figure 3g: gene expression, Puma” value [3, 8] was 2.95 and 1.78 and 1.75. For the same molecule, the “Supplementary Figure 1: Lambda PP activity” value ([4]; 0.27 μg/mL DJ001) was 126 and 132 and 133, the “Supplementary Figure 1: Lambda PP activity” value ([4]; 2.7 μg/mL DJ001) was 118 and 122 and 125 and the “engraftment of human CD45+ cells, CD19+ B cells, CD33+ myeloid cells, and CD3+ T cells vs control” value ([5]; NSG mice, 12 weeks post transplant) was “several – fold increased multilineage engraftment; also recorded: substantially increased engraftment”. The “Figure 5g (center left panel): human engraftment in NSG mice” value [5, 9] was 0.66 and 2.13 and 0.13 and 1.76 and 1.28 and 0.22 and 0.24 and 0.04 and 0.73 and 2.53 and 0.35, the “Figure 5g (center panel): human engraftment in NSG mice” value [5, 9] was 2.25 and 0.8 and 0.17 and 0.56 and 4.4 and 0.31 and 5 and 1.4 and 1.23 and 5.34 and 6.53 and the “Figure 5g (center right panel): human engraftment in NSG mice” value [5, 9] was 0.24 and 0.34 and 1.91 and 0.16 and 0.67 and 0.92 and 0.14 and 0.94 and 0.48 and 4.07 and 1.41 and 1.1. The “Figure 5g (left panel): human engraftment in NSG mice” value [5, 9] was 4.16 and 2.8 and 0.36 and 1.45 and 9.56 and 0.9 and 12.2 and 3.82 and 4.68 and 14.9 and 12.5, the “Figure 5g (right panel): human engraftment in NSG mice” value [5, 9] was 0.25 and 1.48 and 0.96 and 0.1 and 0.49 and 1.86 and 0.23 and 1.47 and 1.13 and 2 and 5.49 and 5.38 and the “Supplementary Figure 1: TCPTP activity” value ([6]; 2.7 μg/mL DJ001) was 91 and 103 and 88. The “Supplementary Figure 1: TCPTP activity” value ([6]; 0.27 g/mL DJ001) was 97 and 96 and 99.

— publication PMC6694155, “PTPσ inhibitors promote hematopoietic stem cell regeneration” (Nature Communications, 2019)
